According to patent US20200009088A1, “COMPOSITIONS AND METHODS FOR TREATING ANDROGEN-INDEPENDENT CANCER” (The Regents of the University of California, priority 2017, published 2020):
Entries after “also recorded” stand apart in the source; their conditions may differ.

Key:
AR = assay: Western blot of AR expression in CWR22Rv1 cell lysates; assay type: cell-based; settings: CWR22Rv1 cells, FIG. 2A
Protocol: (§1) “AR-Variants” represents a combination of all forms of AR.
(§2) The effects of the synthetic small molecule modulators on AR and AR variant expression were determined. CWR22Ry1 prostate cancer cells were treated with different compounds. Protein lysates were analyzed for AR and AR variant expression.

AR-V7 [1] = target: T1, AR-V7 (Homo sapiens, UniProt P10275); assay: Western blot of AR-V7 expression in CWR22Rv1 cell lysates; assay type: cell-based; design: endogenous in cells; host or cells: CWR22Rv1 prostate cancer cells (also grown as xenograft tumours); settings: CWR22Rv1 cells, FIG. 2A
T1 sequence (P10275 1-644 isoform P10275-3): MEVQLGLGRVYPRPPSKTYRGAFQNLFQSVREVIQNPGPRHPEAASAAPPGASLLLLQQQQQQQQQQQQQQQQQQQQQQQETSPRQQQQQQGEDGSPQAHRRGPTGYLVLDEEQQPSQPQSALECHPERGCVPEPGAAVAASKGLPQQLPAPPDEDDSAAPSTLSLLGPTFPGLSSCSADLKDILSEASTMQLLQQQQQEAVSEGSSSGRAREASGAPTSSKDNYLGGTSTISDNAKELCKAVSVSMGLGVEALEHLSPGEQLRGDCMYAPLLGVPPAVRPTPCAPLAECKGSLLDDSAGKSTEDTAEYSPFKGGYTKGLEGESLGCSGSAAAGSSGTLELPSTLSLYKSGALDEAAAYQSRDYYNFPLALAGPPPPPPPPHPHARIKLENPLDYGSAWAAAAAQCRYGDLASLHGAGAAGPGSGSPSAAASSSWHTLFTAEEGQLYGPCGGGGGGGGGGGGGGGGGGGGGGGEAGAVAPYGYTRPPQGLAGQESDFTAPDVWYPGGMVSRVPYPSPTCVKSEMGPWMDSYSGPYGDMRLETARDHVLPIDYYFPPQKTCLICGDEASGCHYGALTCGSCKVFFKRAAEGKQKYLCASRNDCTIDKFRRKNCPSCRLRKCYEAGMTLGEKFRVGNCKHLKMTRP
Protocol: as §1, §2

C4-2B MDVR cells = assay: Cell growth assay (cell numbers), C4-2B MDVR; assay type: cell-based; settings: for cell growth: increasing doses of niclosamide/analogs, FIG. 6; for synergy with abiraterone in inhibiting cell growth / synergy with enzalutamide in inhibiting cell growth: C4-2BMDVR, FIG. 10; for synergy with abiraterone in inhibiting cell growth: analog 0.25 μM + abiraterone 5 μM; for synergy with enzalutamide in inhibiting cell growth: analog 0.25 μM + enzalutamide 20 μM
CWR22Rv1 cells [2] = assay: Cell growth assay (cell numbers), CWR22Rv1; assay type: cell-based; settings: for cell growth: CWR22Rv1, 48 hours, increasing doses of niclosamide/analogs, FIG. 6
CWR22Rv1 cells [3] = assay: Cell growth assay (cell numbers), CWR22Rv1; assay type: cell-based; settings: for synergy with abiraterone in inhibiting cell growth: CWR22Rv1, analog 0.25 μM + abiraterone 5 μM; for cell growth, combination with abiraterone: CWR22Rv1, analog 0.25 μM + abiraterone 5 μM, 0, 3, 5 days; for cell growth, combination with abiraterone / cell growth, combination with enzalutamide: FIGS. 9, 11; for synergy with enzalutamide in inhibiting cell growth: CWR22Rv1, analog 0.25 μM + enzalutamide 20 μM; for cell growth, combination with enzalutamide: CWR22Rv1, analog 0.25 μM + enzalutamide 20 μM, 0, 3, 5 days; for cell growth, combination with bicalutamide: CWR22Rv1, analog 0.25 μM + bicalutamide 20 μM, 0, 3, 5 days; for cell growth, niclosamide analog alone: CWR22Rv1, analog 0.25 μM, 0, 3, 5 days, FIGS. 9, 11, 12
Protocol: DMSO treatment was used as a negative control. Total cell numbers were counted at 0, 3, and 5 days.
DMSO treatment was used as a negative control. Total cell numbers were counted at 0, 3, and 5 days. […]
The cell growth was determined at 3,5 days. […] The cell growth was determined at 3,5 days.

PSA = PSA protein expression by ELISA in C4-2 cells overexpressing AR-V7; assay type: cell-based; settings: C4-2-V7 cells, FIG. 3
Protocol: PSA protein expression was determined by ELISA assay. * denotes p<0.05.

AR-V7 [4] = target: T1, AR-V7; assay: PSA-luc reporter in LNCaP cells co-transfected with AR-V7; settings: LNCaP cells co-transfected with AR-V7, FIG. 4
Protocol: The luciferase activity was then determined. * denotes p<0.05.
In addition, the effects on AR transcriptional activity were determined using PSA-luc as a reporter. LNCaP cells were cotransfected with PSA-luc together with or without AR-V7, and treated with the compounds.

C4-2B AbiR cells = assay: Cell growth assay (cell numbers), C4-2B AbiR; assay type: cell-based; settings: 0.5 μM + enzalutamide, 48 hours, FIG. 7C
C4-2-V7 cells = assay: Cell growth assay (cell numbers), C4-2-V7; assay type: cell-based; settings: C4-2-V7, 0.5 μM + enzalutamide, 48 hours, FIG. 7D
C4-2BMDVR cells = assay: ELISA cell death (apoptosis) assay; assay type: cell-based; settings: FIG. 8
Protocol: To further examine the anti-cancer effects of these compounds, an ELISA cell death assay was performed.

In the case of `CC(C)(C)OC(=O)COc1ccc(Cl)cc1C(=O)Nc1ccc([N+](=O)[O-])cc1Cl` [Compound 35], the AR expression (AR) is reported as “no effect” and the “AR-V7 (AR variant) expression” value (AR-V7 [1]) is reported as “no effect”.
`C[C@]12CC[C@H](O)CC1=CC[C@@H]1[C@@H]2CC[C@]2(C)C(c3cccnc3)=CC[C@@H]12` [abiraterone, reference compound] was tested, and the cell growth (C4-2B MDVR cells; C4-2B MDVR, 48 hours) was “did not inhibit” and the cell growth (CWR22Rv1 cells [2]) was “did not inhibit”.
In the case of `O=C(Nc1cc(C(F)(F)F)cc(C(F)(F)F)c1)c1cc(Cl)ccc1O` [Compound 11], the “synergy with abiraterone in inhibiting cell growth” value (CWR22Rv1 cells [3]) is reported as “able to synergize”, the “cell growth, combination with abiraterone” value (CWR22Rv1 cells [3]) is reported as “able to significantly inhibit” and the “synergy with enzalutamide in inhibiting cell growth” value (CWR22Rv1 cells [3]) is reported as “able to synergize”. For the same compound, the “cell growth, combination with enzalutamide” value (CWR22Rv1 cells [3]) was “able to significantly inhibit”.
In the case of `CNC(=O)c1ccc(N2C(=S)N(c3ccc(C#N)c(C(F)(F)F)c3)C(=O)C2(C)C)cc1F` [enzalutamide, reference compound], the cell growth (C4-2B MDVR cells; C4-2B MDVR, 48 hours) is reported as “did not inhibit”, the cell growth (CWR22Rv1 cells [2]) is reported as “did not inhibit” and the “cell growth, antiandrogen alone” value (CWR22Rv1 cells [3]; CWR22Rv1, enzalutamide 20 μM or abiraterone 5 μM, 0, 3, 5 days, FIG. 9) is reported as “resistant”.
With `COC(=O)COc1ccc(Cl)cc1C(=O)Nc1ccc([N+](=O)[O-])cc1Cl` [Compound 34] the “synergy with abiraterone in inhibiting cell growth” value (C4-2B MDVR cells) was “neither Compound 1 nor Compound 34 were able to synergize”, the “synergy with enzalutamide in inhibiting cell growth” value (C4-2B MDVR cells) was “neither Compound 1 nor Compound 34 were able to synergize” and the AR expression (AR) was “no effect”. The “AR-V7 (AR variant) expression” value (AR-V7 [1]) was “no effect”, the “cell growth, combination with bicalutamide” value (CWR22Rv1 cells [3]; FIG. 12) was “not able to inhibit” and the “cell growth, combination with enzalutamide” value (CWR22Rv1 cells [3]) was “nor the was the combination of these compounds with enzalutamide or abiraterone able to inhibit”. The “cell growth, niclosamide analog alone” value (CWR22Rv1 cells [3]) was “Neither of Compounds 1 or 34 alone were able to inhibit; also recorded: None of Compounds 1, 7, 30, 31, or 34 alone were able to inhibit”.
For `O=C(Nc1ccc([N+](=O)[O-])cc1Cl)c1cccc(Cl)c1` [Compound 1], the “synergy with abiraterone in inhibiting cell growth” value (C4-2B MDVR cells) was “neither Compound 1 nor Compound 34 were able to synergize”, the “synergy with enzalutamide in inhibiting cell growth” value (C4-2B MDVR cells) was “neither Compound 1 nor Compound 34 were able to synergize” and the AR expression (AR) was “no effect”. For the same compound, the “AR-V7 (AR variant) expression” value (AR-V7 [1]) was “no effect”, the “cell growth, combination with bicalutamide” value (CWR22Rv1 cells [3]; FIG. 12) was “not able to inhibit” and the “cell growth, combination with enzalutamide” value (CWR22Rv1 cells [3]) was “nor the was the combination of these compounds with enzalutamide or abiraterone able to inhibit”. The “cell growth, niclosamide analog alone” value (CWR22Rv1 cells [3]) was “Neither of Compounds 1 or 34 alone were able to inhibit; also recorded: None of Compounds 1, 7, 30, 31, or 34 alone were able to inhibit”.
With `CCC(=O)Oc1ccc(Cl)cc1C(=O)Nc1ccc([N+](=O)[O-])cc1Cl` [Compound 30] the PSA expression (PSA; compound alone, ELISA) was “inhibited”, the “enzalutamide-mediated PSA inhibition” value (PSA; in presence of enzalutamide (MDV)) was “further enhanced” and the “cell proliferation, combination with enzalutamide (MDV)” value (shortened to “cell proliferation, combination”) (C4-2B MDVR cells; C4-2B MDVR, 0.5 μM + enzalutamide, 48 hours, FIG. 7B) was “further inhibited”. For the same compound, the “synergy with abiraterone in inhibiting cell growth” value (C4-2B MDVR cells) was “able to synergize”, the “synergy with enzalutamide in inhibiting cell growth” value (C4-2B MDVR cells) was “able to synergize” and the AR expression (AR) was “inhibited”. The “AR-V7 (AR variant) expression” value (AR-V7 [1]) was “inhibited”, the “cell proliferation, combination” value (CWR22Rv1 cells [2]; CWR22Rv1, 0.5 μM + enzalutamide, 48 hours, FIG. 7A) was “further inhibited” and the “synergy with abiraterone in inhibiting cell growth” value (CWR22Rv1 cells [3]) was “able to synergize”. The “cell growth, combination with abiraterone” value (CWR22Rv1 cells [3]) was “significantly inhibited”, the “cell growth, combination with bicalutamide” value (CWR22Rv1 cells [3]; FIG. 12) was “able to significantly inhibit” and the “synergy with bicalutamide in inhibiting cell growth” value (CWR22Rv1 cells [3]; CWR22Rv1, analog 0.25 μM + bicalutamide 20 μM, FIG. 12) was “able to synergize”. The “synergy with enzalutamide in inhibiting cell growth” value (CWR22Rv1 cells [3]) was “able to synergize”, the “cell growth, combination with enzalutamide” value (CWR22Rv1 cells [3]) was “significantly inhibited” and the “cell growth, niclosamide analog alone” value (CWR22Rv1 cells [3]) was “None of Compounds 1, 7, 30, 31, or 34 alone were able to inhibit”. The “AR-V7 mediated PSA-luc activity” value (AR-V7 [4]) was “inhibited”, the “cell proliferation, combination” value (C4-2B AbiR cells) was “further inhibited” and the “cell proliferation, combination” value (C4-2-V7 cells) was “further inhibited”. For the same compound, the cell apoptosis (C4-2BMDVR cells; compound alone, analogs compared with niclosamide) was “further enhanced” and the “apoptotic cell death, combination with enzalutamide (MDV)” value (C4-2BMDVR cells; with enzalutamide) was “further increased”.
For `O=C(Nc1cc(F)cc(F)c1)c1cc(Cl)ccc1O` [Compound 17], the AR expression (AR) was “no effect”, the “AR-V7 (AR variant) expression” value (AR-V7 [1]) was “no effect” and the “synergy with abiraterone in inhibiting cell growth” value (CWR22Rv1 cells [3]) was “but not Compounds 2 and 17, were able to synergize”. For the same compound, the “cell growth, combination with abiraterone” value (CWR22Rv1 cells [3]) was “nor was a combination of either of these compounds with enzalutamide or abiraterone able to inhibit”, the “cell growth, combination with enzalutamide” value (CWR22Rv1 cells [3]) was “nor was a combination of either of these compounds with enzalutamide or abiraterone able to inhibit” and the “cell growth, niclosamide analog alone” value (CWR22Rv1 cells [3]) was “neither Compounds 2 nor Compound 17 alone were able to inhibit”.
`O=C(Nc1ccc([N+](=O)[O-])cc1Cl)c1ccccc1O` [Compound 2] was tested, and the AR expression (AR) was “no effect”, the “AR-V7 (AR variant) expression” value (AR-V7 [1]) was “no effect” and the “synergy with abiraterone in inhibiting cell growth” value (CWR22Rv1 cells [3]) was “but not Compounds 2 and 17, were able to synergize”. For the same compound, the “cell growth, combination with abiraterone” value (CWR22Rv1 cells [3]) was “nor was a combination of either of these compounds with enzalutamide or abiraterone able to inhibit”, the “cell growth, combination with enzalutamide” value (CWR22Rv1 cells [3]) was “nor was a combination of either of these compounds with enzalutamide or abiraterone able to inhibit” and the “cell growth, niclosamide analog alone” value (CWR22Rv1 cells [3]) was “neither Compounds 2 nor Compound 17 alone were able to inhibit”.
`O=C(Nc1cc(C(F)(F)F)cc(C(F)(F)F)c1)c1cc(Cl)ccc1O` [Compound 5] was tested, and the AR expression (AR) was “inhibited” and the “AR-V7 (AR variant) expression” value (AR-V7 [1]) was “inhibited”.
`O=C(O)COc1ccc(Cl)cc1C(=O)Nc1ccc([N+](=O)[O-])cc1Cl` [Compound 29] was tested, and the AR expression (AR) was “no effect” and the “AR-V7 (AR variant) expression” value (AR-V7 [1]) was “no effect”.
With `CNC(=O)c1ccc(N2C(=S)N(c3cnc(C#N)c(C(F)(F)F)c3)C(=O)C23CCC3)cc1F` [ARN509, reference compound] the cell growth (C4-2B MDVR cells; C4-2B MDVR, 48 hours) was “did not inhibit” and the cell growth (CWR22Rv1 cells [2]) was “did not inhibit”.
For `O=C(Nc1ccccc1Cl)c1cc(Cl)ccc1O` [Compound 8], the AR expression (AR) was “no effect” and the “AR-V7 (AR variant) expression” value (AR-V7 [1]) was “no effect”.
